Test results published in paper PMC13376213, “Systematic discovery of motif-based interactions of the auxiliary domains of USP family deubiquitinases” (Nature Communications, 2026).
Read-outs that look alike come from different tables or passages of the source.

What was measured:
Type in all cases: binding
USP33 zf-UBP domain = biological target: T1, USP33 zf-UBP domain (Homo sapiens, UniProt Q8TEY7); assay: FP-monitored affinity measurements, USP33 zf-UBP; settings: USP33_UBP; FP displacement by unlabelled peptide; read-out: KD
T1 construct: USP33_UBP; Q8TEY7; zf-UBP; 36; 130; 6xHis-GST (N, cleaved yes); made in house; host or cells: Escherichia coli BL21-Gold (DE3)
T1 sequence (Q8TEY7 with tags, fused parts or gaps): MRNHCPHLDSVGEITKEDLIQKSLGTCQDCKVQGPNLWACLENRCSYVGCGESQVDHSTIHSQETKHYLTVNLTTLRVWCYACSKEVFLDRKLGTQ
Method: (§3) The measurements were performed at room temperature in a non-binding black half area 96-well plate (Corning) with a total volume of 50 μL per well. […] All measurements were performed in three technical replicates. […] The saturation curves were fitted to the quadratic equation, and the displacement curves were fitted to a sigmoidal dose-response equation as described previously[68].

USP33 DUSP2 domain [1] = biological target: T2, USP33 DUSP2 domain (Homo sapiens, UniProt Q8TEY7); assay: FP-monitored affinity measurements, USP33 DUSP2
T2 construct: USP33_DUSP2; Q8TEY7; DUSP2; 806; 921; 6xHis-GST (N, cleaved yes); made in house; host or cells: Escherichia coli BL21-Gold (DE3)
T2 sequence (Q8TEY7 with tags, fused parts or gaps): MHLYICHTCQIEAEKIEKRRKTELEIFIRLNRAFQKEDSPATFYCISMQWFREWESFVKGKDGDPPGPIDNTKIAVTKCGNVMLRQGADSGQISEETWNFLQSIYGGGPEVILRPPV
Method: (§1) Proteins were expressed in Escherichia coli (E.coli) BL21-Gold (DE3) bacteria. The cDNAs encoding N-terminal 6-histidine-glutathione S-transferase tagged (6xHis-GST), 6xHis-tagged or GST-tagged protein domains in pETM33, pETM11, pGEX6P1 expression vectors respectively, were obtained from Genescript or kindly provided by MRC-PPU (Suppl. Data 1) The bacteria were transformed with the plasmid and grew at 37 °C in 2YT (5 g/L NaCl, 16 g/L tryptone and 10 g/L yeast extract) supplemented with Kanamycin (30 μg/mL) until reaching an OD600 of 0.7. Protein expression was induced with 0.3 mM isopropyl β-D-1 thiogalactopyranoside (IPTG) for 18 h at 18 °C while shaking. For zinc-finger domains, 50 μM of ZnSO4 was added during expression. The bacterial cultures were pelleted for 15 minutes at 4000 x g at 4 °C and stored at −20 °C until purification. The pellets were resuspended in lysis buffer (1× phosphate-buffered saline (PBS), 0.5 % Triton-X, 5 mM MgCl2, 10 μg/mL lysozyme, cOmplete^TM EDTA-free protease inhibitor cocktail (Roche), 10 μg/mL DNAseI) and incubated for 1 h shaking at 4 °C. […] The supernatant was incubated with glutathione (GSH) Sepharose (Cytiva) or Ni2+ Sepharose (Cytiva) for 1 h at 4 °C while shaking. The beads with the bound protein were washed with 1x PBS and eluted with 10 mM reduced glutathione in 50 mM Tris pH 8.0. For fluorescence polarization experiments, the proteins were not eluted from the beads, and the 6xHis-GST tag was cleaved overnight on GSH Sepharose beads at 4 °C while shaking with PreScission Protease in cleavage buffer (50 mM Tris pH 7.5, 150 mM NaCl, 1 mM DTT). The sample containing the cleaved domain was separated from the tag and protease and buffer-exchanged to 50 mM sodium phosphate buffer pH 7.4 with 1 mM DTT using a PD-10 desalting column (Cytiva). The purity and size of the proteins were analyzed by SDS-PAGE electrophoresis.
(§2) The measurements were performed at room temperature in a non-binding black half area 96-well plate (Corning) with a total volume of 50 μL per well. Peptides were obtained from GeneCust (France) with >95% purity. FITC-labeled peptides (N-terminally FITC-labeled without spacer and C-terminally amidated) were dissolved in dimethyl sulfoxide (DMSO), and unlabeled peptides (N-terminally acetylated and C-terminally amidated) were dissolved in 50 mM phosphate buffer pH 7.4. Saturation measurements were performed using a serial dilution of the protein domains in phosphate buffer (25 μL) and the addition of 10 nM FITC-labeled peptide (in phosphate buffer supplemented with 2 mM DTT) (25 μL). […] All measurements were performed in three technical replicates. The data were analyzed using GraphPad Prism version 9.2.0 for MacOS (GraphPad Software, San Diego, California USA, www.graphpad.com). The saturation curves were fitted to the quadratic equation, and the displacement curves were fitted to a sigmoidal dose-response equation as described previously.

USP20 DUSP2 domain [2] = biological target: T3, USP20 DUSP2 domain (Homo sapiens, UniProt Q9Y2K6); assay: FP-monitored affinity measurements, USP20 DUSP2; settings: USP20_DUSP2; FP displacement by unlabelled peptide; read-out: KD
T3 construct: USP20_DUSP2; Q9Y2K6; DUSP2; 776; 894; 6xHis-GST (N, cleaved yes); made in house; host or cells: Escherichia coli BL21-Gold (DE3)
Method: as §1, §2

USP20 zf-UBP domain = biological target: T4, USP20 zf-UBP domain (Homo sapiens, UniProt Q9Y2K6); assay: FP-monitored affinity measurements, USP20 zf-UBP; settings: USP20_UBP; FP displacement by unlabelled peptide; read-out: KD
T4 construct: USP20_UBP; Q9Y2K6; zf-UBP; 99; 6xHis-GST (N, cleaved yes); made in house; host or cells: Escherichia coli BL21-Gold (DE3)
Method: as §3

USP33 DUSP2 domain [3] = biological target: T2, USP33 DUSP2 domain; assay: Peptide SPOT array, USP33 DUSP2; settings: average normalised to the highest intensity (CCDC88B = 100)
Method: (§4) Peptides were synthesized on cellulose membranes with standard Fluoroenylmethylox-ycarbonyl (Fmoc) chemistry using a Multipep automated synthesizer at INTAVIS (Tübingen, Germany) or ordered from JPT (PepSpots). The membranes were activated with methanol for 5 min and washed three times for 5 min with TBST (50 mM Tris, 137 mM NaCl, 2.7 mM KCl, pH 8.0, 0.05% Tween-20). The membranes were incubated with blocking buffer (5% skim milk powder in TBST) for 2 h at room temperature while shaking. The membranes were incubated with the GST-tagged protein diluted at the desired concentration in blocking buffer and incubated overnight at 4 °C while shaking. The membrane was rinsed 3 times with TBST and incubated with HRP-conjugated anti-GST antibody (Cytiva, RPN1236; 1:3000 dilution) in blocking buffer for 1 h at 4 °C while shaking. […] The images were analyzed in Fiji (ImageJ2 version 2.9.0).

USP20 DUSP2 domain [4] = biological target: T3, USP20 DUSP2 domain; assay: Peptide SPOT array, USP20 DUSP2;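 note: GST-tagged domain probed overnight at 4 °C on peptides made on cellulose membranes, bound protein detected via HRP-coupled anti-GST antibody, spot intensity from image analysis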
Method: as §4

[5] = USP33_DUSP2, FP displacement by unlabelled peptide, read-out: KD

T3 sequence (Q9Y2K6 with tags, fused parts or gaps): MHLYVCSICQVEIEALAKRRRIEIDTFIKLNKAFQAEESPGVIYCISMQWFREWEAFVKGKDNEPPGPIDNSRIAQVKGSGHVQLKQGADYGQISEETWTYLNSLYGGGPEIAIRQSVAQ
T4 sequence (Q9Y2K6 4-99): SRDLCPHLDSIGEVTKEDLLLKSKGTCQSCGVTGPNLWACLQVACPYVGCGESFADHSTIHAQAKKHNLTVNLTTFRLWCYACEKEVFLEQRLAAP

Row | Compound | Kd (USP33 zf-UBP domain) [µM] | Kd (USP33 DUSP2 domain [1]; [5]) [µM] | Kd (USP20 DUSP2 domain [2]) [µM] | further results
1 | CC(=O)N[C@@H](Cc1ccc(O)cc1)C(=O)N[C@@H](CCCCN)C(=O)N[C@@H](CCC(N)=O)C(=O)N[C@@H](CCC(N)=O)C(=O)N[C@@H](CCCNC(=N)N)C(=O)N[C@@H](CO)C(=O)N[C@@H](CC(=O)O)C(=O)N[C@@H](CC(C)C)C(=O)N[C@@H](C)C(=O)NCC(=O)N1CCC[C@H]1C(=O)N[C@H](C(=O)N[C@@H](CC(=O)O)C(N)=O)C(C)C [APBA2_N334A] | 112 | – | – | –
2 | AQDSPIDFHLQSWMNN [CEP192] | 14.1 | – | – | Kd (USP20 zf-UBP domain): 37.1 µM
3 | Ac-SDDDLAWNIAPQGLQ-NH2 [GPR137B348-362] | – | ~228 | 10.2 | Normalize to higher intensity (%) (USP33 DUSP2 domain [3]): -9.797%; Kd (USP33 DUSP2 domain [1]; competitive FP: unlabeled peptide (N-acetylated, C-amidated) against protein with 10 nM FITC-labeled peptide, 50 mM phosphate pH 7.4, room temperature, technical triplicate, read-out: KD, USP33 DUSP2): > 200 µM; Average (USP20 DUSP2 domain [4]; peptide SPOT array intensity minus background, sheet S5A, mean of 2 replicas): 1.607; Normalize to higher intensity (%) (USP20 DUSP2 domain [4]; peptide SPOT array, USP20 DUSP2, average normalised to the highest intensity (ARNTL2 = 100)): 0.8997%; Normalize to peptide with higher intensity % (USP20 DUSP2 domain [4]; peptide SPOT array, sheet S5A, average normalized to the peptide with highest intensity (ARNTL2 = 100)): 0.8997%
4 | Ac-YEKVKRRLDLDID-NH2 [CCP110] | ~260 | – | – | Kd (USP20 zf-UBP domain): ~505 µM

Continued, in another order:

Row | Kd (USP33 zf-UBP domain) [µM] | Kd (USP33 DUSP2 domain [1]; [5]) [µM] | Kd (USP20 DUSP2 domain [2]) [µM] | Compound | further results
5 | – | ~930 | ~589 | CC[C@H](C)[C@H](NC(=O)[C@H](Cc1ccc(O)cc1)NC(=O)[C@@H]1CCCN1C(C)=O)C(=O)N1CCC[C@H]1C(=O)N[C@@H](CCSC)C(=O)N[C@@H](CC(=O)O)C(=O)N[C@@H](CC(=O)O)C(=O)N[C@@H](CC(=O)O)C(=O)N[C@@H](C)C(=O)N[C@@H](CCC(N)=O)C(=O)N[C@@H](CC(C)C)C(=O)N[C@@H](CCCNC(=N)N)C(=O)N[C@@H](CO)C(=O)N[C@@H](Cc1ccccc1)C(=O)N[C@@H](CC(=O)O)C(=O)N[C@@H](CCC(N)=O)C(=O)N[C@@H](CC(C)C)C(=O)N[C@@H](CO)C(N)=O [HIF1A_F572A] | –
6 | – | ~227 | 89 | Ac-PYIPMDDDFQARSFDQLS-NH2 [HIF1A_L574A] | –
7 | – | ~145 | 85 | Ac-PYIPMDDKFQLRSFDQLS-NH2 [HIF1A_D571K] | –
8 | – | ~1180 | ~235 | Ac-PYIPMDGEDFQLSPICPE-NH2 [HIF2A] | –
